Test results taken from US12310975B2, “Modulators of BCL6 proteolysis and associated methods of use” (Arvinas Operations, Inc., priority 2019, dated 2025).

Key:
BCL6 [1] = biological target: T1, BCL6 (Homo sapiens (Human), UniProt P41182); experiment: Immunofluorescence high content imaging of BCL6 degradation in T47D cells; type: cell-based; conditions: T47D
Summary of the method: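 BCL6 loss was quantified by high-content imaging (10×, 4 fields/well) after PFA fixation and anti-BCL6/Alexa-488 staining with Hoechst nuclear and CellMask counterstains. Compounds were applied for 3 days to T47D breast cancer cells in RPMI-10% FBS, 11 points, 3-fold steps, top 0.1 or 1 μM.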

BCL6 [2] = biological target: T1, BCL6; experiment: BCL6 TR-FRET assay (BCL6-Avitag-Biotin / BCoR-Cy5 peptide); type: binding; conditions: read-out: IC50
Summary of the method: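 TR-FRET displacement assay: biotinylated His-SUMO-BCL6-Avitag (2 nM) pre-incubated 30 min at room temperature with compound (12-point 3-fold titration), then BCoR-Cy5 peptide (100 nM) and Eu-streptavidin (2 nM) added. Buffer: 50 mM HEPES pH 7.5, 125 mM NaCl, 0.01% Triton X, glutathione or DTT, 0.03% BSA. Read after 2 h.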

Compound	Dmax (BCL6 [1])	IC50 (BCL6 [2])
CNC(=O)COc1cc2cc(Nc3nc(N4CCN(CC5CC6(C5)CN(c5cccc7c5C(=O)N(C5CCC(=O)NC5=O)C7=O)C6)CC4)ncc3Cl)ccc2n(C(C)C)c1=O (centres unmarked) [compound 529, 2-{[6-({5-chloro-2-[4-({2-[2-(2,6-dioxopiperidin-3-yl)-1,3-dioxo-2,3-dihydro-1H-isoindol-4-yl]-2-azaspiro[3.3]heptan-6-yl}methyl)piperazin-1-yl]pyrimidin-4-yl}amino)-2-oxo-1-(propan-2-yl)-1,2-dihydroquinolin-3-yl]oxy}-N-methylacetamide]	50 to 70%	< 10 nM
CNC(=O)COc1cc2cc(Nc3nc(N4CCC(O[C@H]5C[C@H](N6CCN(c7ccc8c(c7)C(=O)N(C7CCC(=O)NC7=O)C8=O)CC6)C5)CC4)ncc3Cl)ccc2n(C(C)C)c1=O (some centres unmarked) [compound 531, 2-({6-[(5-chloro-2-{4-[(1r,3r)-3-{4-[2-(2,6-dioxopiperidin-3-yl)-1,3-dioxo-2,3-dihydro-1H-isoindol-5-yl]piperazin-1-yl}cyclobutoxy]piperidin-1-yl}pyrimidin-4-yl)amino]-2-oxo-1-(propan-2-yl)-1,2-dihydroquinolin-3-yl}oxy)-N-methylacetamide]	< 50%	< 10 nM
CNC(=O)COc1cc2cc(Nc3nc(N4CCC5(CCN(CC6CCN(c7cccc8c7C(=O)N(C7CCC(=O)NC7=O)C8=O)CC6)CC5)CC4)ncc3Cl)ccc2n(C(C)C)c1=O (centres unmarked) [compound 533, 2-{[6-({5-chloro-2-[9-({1-[2-(2,6-dioxopiperidin-3-yl)-1,3-dioxo-2,3-dihydro-1H-isoindol-4-yl]piperidin-4-yl}methyl)-3,9-diazaspiro[5.5]undecan-3-yl]pyrimidin-4-yl}amino)-2-oxo-1-(propan-2-yl)-1,2-dihydroquinolin-3-yl]oxy}-N-methylacetamide]	≥ 70%	< 10 nM
CNC(=O)COc1cc2cc(Nc3nc(N4CCC(CN5CCC6(CCN(c7ccc8c(c7)C(=O)N(C7CCC(=O)NC7=O)C8=O)C6)C5)CC4)ncc3Cl)ccc2n(C(C)C)c1=O (centres unmarked) [compound 534, 2-{[6-({5-chloro-2-[4-({7-[2-(2,6-dioxopiperidin-3-yl)-1,3-dioxo-2,3-dihydro-1H-isoindol-5-yl]-2,7-diazaspiro[4.4]nonan-2-yl}methyl)piperidin-1-yl]pyrimidin-4-yl}amino)-2-oxo-1-(propan-2-yl)-1,2-dihydroquinolin-3-yl]oxy}-N-methylacetamide]	≥ 70%	< 10 nM
CNC(=O)COc1cc2cc(Nc3nc(N4CCC(O[C@H]5C[C@H](N6CCC(c7ccc8c(c7)C(=O)N(C7CCC(=O)NC7=O)C8=O)CC6)C5)CC4)ncc3Cl)ccc2n(C)c1=O (some centres unmarked) [compound 536, 2-({6-[(5-chloro-2-{4-[(1r,3r)-3-{4-[2-(2,6-dioxopiperidin-3-yl)-1,3-dioxo-2,3-dihydro-1H-isoindol-5-yl]piperidin-1-yl}cyclobutoxy]piperidin-1-yl}pyrimidin-4-yl)amino]-1-methyl-2-oxo-1,2-dihydroquinolin-3-yl}oxy)-N-methylacetamide]	≥ 70%	< 10 nM

More lines, now with the values ahead:

Dmax (BCL6 [1])	IC50 (BCL6 [2])	Compound
< 50%	< 10 nM	CNC(=O)COc1cc2cc(Nc3nc(N4CCN(C[C@H]5C[C@H](N6CCN(c7cccc8c7C(=O)N(C7CCC(=O)NC7=O)C8=O)CC6)C5)CC4)ncc3Cl)ccc2n(C(C)C)c1=O (some centres unmarked) [compound 537, 2-[(6-{[5-chloro-2-(4-{[(1r,3r)-3-{4-[2-(2,6-dioxopiperidin-3-yl)-1,3-dioxo-2,3-dihydro-1H-isoindol-4-yl]piperazin-1-yl}cyclobutyl]methyl}piperazin-1-yl)pyrimidin-4-yl]amino}-2-oxo-1-(propan-2-yl)-1,2-dihydroquinolin-3-yl)oxy]-N-methylacetamide]
≥ 70%	< 10 nM	CNC(=O)COc1cc2cc(Nc3nc(N4CCC(CN5CC(N6CCC(c7ccc8c(c7)C(=O)N(C7CCC(=O)NC7=O)C8=O)CC6)C5)CC4)ncc3Cl)ccc2n(C(C)C)c1=O (centres unmarked) [compound 538, 2-({6-[(5-chloro-2-{4-[(3-{4-[2-(2,6-dioxopiperidin-3-yl)-1,3-dioxo-2,3-dihydro-1H-isoindol-5-yl]piperidin-1-yl}azetidin-1-yl)methyl]piperidin-1-yl}pyrimidin-4-yl)amino]-2-oxo-1-(propan-2-yl)-1,2-dihydroquinolin-3-yl}oxy)-N-methylacetamide]
50 to 70%	< 10 nM	CNC(=O)COc1cc2cc(Nc3nc(N4CCN(CC5CCC6(CC5)CN(c5c(F)ccc7c5C(=O)N(C5CCC(=O)NC5=O)C7=O)C6)CC4)ncc3Cl)ccc2n(C(C)C)c1=O (centres unmarked) [compound 539, 2-{[6-({5-chloro-2-[4-({2-[2-(2,6-dioxopiperidin-3-yl)-5-fluoro-1,3-dioxo-2,3-dihydro-1H-isoindol-4-yl]-2-azaspiro[3.5]nonan-7-yl}methyl)piperazin-1-yl]pyrimidin-4-yl}amino)-2-oxo-1-(propan-2-yl)-1,2-dihydroquinolin-3-yl]oxy}-N-methylacetamide]
≥ 70%	< 10 nM	CNC(=O)COc1cc2cc(Nc3nc(N4CCN(CC5CCC6(CC5)CN(c5cc(F)cc7c5C(=O)N(C5CCC(=O)NC5=O)C7=O)C6)CC4)ncc3Cl)ccc2n(C(C)C)c1=O (centres unmarked) [compound 540, 2-{[6-({5-chloro-2-[4-({2-[2-(2,6-dioxopiperidin-3-yl)-6-fluoro-1,3-dioxo-2,3-dihydro-1H-isoindol-4-yl]-2-azaspiro[3.5]nonan-7-yl}methyl)piperazin-1-yl]pyrimidin-4-yl}amino)-2-oxo-1-(propan-2-yl)-1,2-dihydroquinolin-3-yl]oxy}-N-methylacetamide]
≥ 70%	< 10 nM	CNC(=O)COc1cc2cc(Nc3nc(N4CCN(CC5CCC6(CC5)CN(c5ccc(F)c7c5C(=O)N(C5CCC(=O)NC5=O)C7=O)C6)CC4)ncc3Cl)ccc2n(C(C)C)c1=O (centres unmarked) [compound 541, 2-{[6-({5-chloro-2-[4-({2-[2-(2,6-dioxopiperidin-3-yl)-7-fluoro-1,3-dioxo-2,3-dihydro-1H-isoindol-4-yl]-2-azaspiro[3.5]nonan-7-yl}methyl)piperazin-1-yl]pyrimidin-4-yl}amino)-2-oxo-1-(propan-2-yl)-1,2-dihydroquinolin-3-yl]oxy}-N-methylacetamide]
